Biological target: Receptor protein serine/threonine kinase (Danio rerio, UniProt B3DJG0)
Assay: Kinase assay Dorsalization

Sequence of Receptor protein serine/threonine kinase (B3DJG0 whole entry): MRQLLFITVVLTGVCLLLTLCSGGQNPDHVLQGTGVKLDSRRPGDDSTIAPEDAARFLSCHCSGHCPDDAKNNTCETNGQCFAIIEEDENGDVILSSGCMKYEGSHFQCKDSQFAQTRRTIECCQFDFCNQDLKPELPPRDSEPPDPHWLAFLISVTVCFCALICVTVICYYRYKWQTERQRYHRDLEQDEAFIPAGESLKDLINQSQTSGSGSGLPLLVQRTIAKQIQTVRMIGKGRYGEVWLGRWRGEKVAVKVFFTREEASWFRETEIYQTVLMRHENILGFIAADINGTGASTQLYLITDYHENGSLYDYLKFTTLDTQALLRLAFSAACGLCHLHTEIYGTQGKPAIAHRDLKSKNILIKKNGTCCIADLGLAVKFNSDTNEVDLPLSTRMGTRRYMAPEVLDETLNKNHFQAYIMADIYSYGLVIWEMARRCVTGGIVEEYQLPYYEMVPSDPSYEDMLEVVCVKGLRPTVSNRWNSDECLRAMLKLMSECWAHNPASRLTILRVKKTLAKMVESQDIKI

EC100 [nM] | Structure (SMILES)
200 | CC(C)Oc1ccc(-c2cnc3c(-c4ccnc5ccccc45)cnn3c2)cc1 [4-(6-(4-isopropoxyphenyl)pyrazolo[1,5-a]pyrimidin-3-yl)quinoline]
1000 | CN(C)CCCOc1ccc(-c2cnc3c(-c4ccnc5ccccc45)cnn3c2)cc1 [DMH3]

Continued, compound first:

Structure (SMILES) | EC100 [nM]
c1cc(-c2cnn3cc(-c4ccc(OCCN5CCOCC5)cc4)cnc23)ccn1 | 1000
c1ccc2c(-c3cnn4cc(-c5ccc(OCCN6CCOCC6)cc5)cnc34)ccnc2c1 [4-(2-(4-(3-(quinolin-4-yl)pyrazolo[1,5-a]pyrimidin-6-yl)phenoxy)ethyl)morpholine] | 100
c1ccc2c(-c3cnn4cc(-c5ccc(N6CCNCC6)cc5)cnc34)ccnc2c1 [LDN-193189] | 3000
COc1ccc(-c2cnc3c(-c4ccccc4)cnn3c2)cc1 [dorsomorphin (6LP)] | > 50000

— BindingDB's records for doi:10.1021/cb9002865 (Vanderbilt University, 2010)
